According to PMC10536928, “Discovery of New Pyrrolo[2,3-d]pyrimidine Derivatives as Potential Multi-Targeted Kinase Inhibitors and Apoptosis Inducers” (Pharmaceuticals, 2023):

Columns and labels:
[1] = test system: epithelioid cervix carcinoma (HeLa); assay: MTT cytotoxicity assay; assay type: cell-based; settings: Homo sapiens, 24 h exposure, mean ± SD of triplicate
[2] = test system: mammary gland cancer (MCF-7); assay: MTT cytotoxicity assay; assay type: cell-based; settings: Homo sapiens, MCF7, 24 h, 24 h exposure, mean ± SD of triplicate
Procedure: (§1) The cytotoxic effects of compounds 5a–m were evaluated using a standard MTT method against four different cancer cell lines, namely mammary gland cancer (MCF-7), hepatocellular carcinoma (HepG2), breast cancer (MDA-MB-231), and epithelioid cervix carcinoma (HeLa). […] These findings highlight the potential of these compounds as candidates for further development as cytotoxic agents for cancer treatment.
(§2) The cytotoxicity of compounds 5a–m was assessed against various cancer cell lines and one normal cell line using the described methodology. In brief, the cells were cultured in 96-well plates with a density of 1.0 × 10^4 cells per well, supplemented with 10% fetal bovine serum (FBS), an antibiotic cocktail, and RPMI 11,640 medium. The cells were then incubated for 48 h with 5% CO2 and 100% relative humidity at 37 °C. […] Following treatment, the addition of 20 µL of MTT solution was added to each well and incubation was continued for another 4 h, after which dimethyl sulfoxide (100 µL) was used to dissolve the resulting insoluble formazan. The absorbance was measured at 570 nm using a BioTek EXL 800 plate reader (Agilent Technologies, CA, USA). By comparing the absorbance of treated samples to untreated samples, the relative cell viability percentage was calculated as (A570 of treated samples/A570 of untreated sample) × 100. The IC50 values were determined based on triplicate measurements.

[3] = test system: hepatocellular carcinoma (HepG2); assay: MTT cytotoxicity assay; assay type: cell-based; settings: Homo sapiens, 24 h exposure, mean ± SD of triplicate
Procedure: as §1, §2

[4] = test system: breast cancer (MDA-MB-231); assay: MTT cytotoxicity assay; assay type: cell-based; settings: Homo sapiens, 24 h exposure, mean ± SD of triplicate
Procedure: as §1, §2

Her2 = biological target: T1, Her2 (Homo sapiens, UniProt P04626); assay: In vitro protein kinase inhibition assay (ELISA kit); assay type: biochemical; settings: triplicate
T1 construct: purchased
Procedure: (§3) In accordance with the documented procedures, fifteen derivatives of the synthesized compounds were evaluated for their inhibitory effects on EGFR, VEGFR-2, Her2, and CDK2 using specific human ELISA kits (Enzyme-Linked Immunosorbent Assay) designed for each respective kinase enzyme. Initially, various concentrations of the synthesized compounds were combined with specific antibodies for each enzyme in individual wells of a 96-well plate, followed by incubation at room temperature for 2.5 h. Subsequently, the plate was washed, and a biotin antibody (100 µL), prepared in-house, was added and allowed to incubate at ambient temperature for 1 h. After another washing step, a solution of streptavidin (100 µL) was introduced to each well and left for 45 min at room temperature. Following a third round of washing, a TMB Substrate (100 µL) reagent was applied to all wells and incubated for 30 min at room temperature. Finally, the reaction was terminated by adding 50 µL of a stop solution, and the absorbance was directly measured at 450 nm. A standard curve was constructed, illustrating the relationship between concentration (X-axis) and absorbance (Y-axis).

CDK2 = biological target: T2, CDK2 (Homo sapiens, UniProt P24941); assay: as above; assay type: biochemical; settings: triplicate
T2 construct: purchased
Procedure: as §3

EGFR = biological target: T3, EGFR (Homo sapiens, UniProt P00533); assay: as above; assay type: biochemical; settings: triplicate
T3 construct: purchased
Procedure: as §3

VEGFR2 = biological target: T4, VEGFR2 (Homo sapiens, UniProt P35968); assay: as above; assay type: biochemical; settings: triplicate
T4 construct: purchased
Procedure: as §3

[5] = test system: four different cancer cell lines (MCF-7, HepG2, MDA-MB-231, HeLa); assay: MTT cytotoxicity assay, range over the four cell lines; assay type: cell-based; settings: read-out: IC50 values, range over the tested cancer cell lines
Procedure: as §1, §2

Bcl-2 = assay: Apoptotic protein levels assay (ELISA) in HepG2 cells; assay type: cell-based; settings: 24 h, ELISA, control 11.7 ± 0.36
Excerpt: (§4) To validate the mechanism of cell death and the induction of apoptosis caused by compound 5k, the expression levels of some apoptotic proteins were investigated. […] Specifically, the levels of caspase-3 (6.9 folds higher than the control) and Bax (2.6 folds higher than the control) were higher in the group treated with 5k compared to the control group. Caspase-3 is a key enzyme involved in the execution of apoptosis, while Bax is a pro-apoptotic protein that promotes cell death. […] Bcl-2 is a protein that inhibits apoptosis, so the lower levels of Bcl-2 in the 5k treated group further support the notion that treatment with 5k may induce apoptosis in HepG2 cells. […] These findings may have implications for the development of novel therapies for diseases involving abnormal cell death, including cancer. Further studies are warranted in order to elucidate the underlying mechanisms of action of compound 5k and to assess its potential therapeutic applications.
(§5) The ELISA technique was employed to assess the impact of compound 5k on the alteration of protein levels associated with caspase-3, BAX, and Bcl-2. Specifically, the following ELISA kits were utilized: KHO1091 (InvitrogenTM, Grand Island, NY, USA) for caspase-3, EIA-4860 and EIA-4487 for BAX, (DRU International INC., Mountainside, NJ, USA), and 99-0042 (InvitrogenTM, Grand Island, NY, USA) for Bcl-2 for the respective measurements. The experimental procedures were conducted according to the instructions provided by the manufacturers and our recently published article. Initially, HepG2 cells were cultured in triplicate in 96-well plates. Following a 24-h incubation period, the cells were subjected to various concentrations of compound 5k, while a control group was treated with 0.1% DMSO (V/V). After an additional 24-h incubation, the absorbance levels were assessed using a BioTek Synergy H1 Multi-mode Reader (Agilent Technologies, Santa Clara, CA, USA) at wavelengths ranging from 450 to 650 nm.

Bax = assay: as above; assay type: cell-based; settings: 24 h, ELISA, control 67.09 ± 4.94
Excerpt: as §4, §5

caspase-3 = assay: as above; assay type: cell-based; settings: 24 h, ELISA, control 66.28 ± 4.66
Excerpt: as §4, §5

T1 sequence (P04626 23-1255): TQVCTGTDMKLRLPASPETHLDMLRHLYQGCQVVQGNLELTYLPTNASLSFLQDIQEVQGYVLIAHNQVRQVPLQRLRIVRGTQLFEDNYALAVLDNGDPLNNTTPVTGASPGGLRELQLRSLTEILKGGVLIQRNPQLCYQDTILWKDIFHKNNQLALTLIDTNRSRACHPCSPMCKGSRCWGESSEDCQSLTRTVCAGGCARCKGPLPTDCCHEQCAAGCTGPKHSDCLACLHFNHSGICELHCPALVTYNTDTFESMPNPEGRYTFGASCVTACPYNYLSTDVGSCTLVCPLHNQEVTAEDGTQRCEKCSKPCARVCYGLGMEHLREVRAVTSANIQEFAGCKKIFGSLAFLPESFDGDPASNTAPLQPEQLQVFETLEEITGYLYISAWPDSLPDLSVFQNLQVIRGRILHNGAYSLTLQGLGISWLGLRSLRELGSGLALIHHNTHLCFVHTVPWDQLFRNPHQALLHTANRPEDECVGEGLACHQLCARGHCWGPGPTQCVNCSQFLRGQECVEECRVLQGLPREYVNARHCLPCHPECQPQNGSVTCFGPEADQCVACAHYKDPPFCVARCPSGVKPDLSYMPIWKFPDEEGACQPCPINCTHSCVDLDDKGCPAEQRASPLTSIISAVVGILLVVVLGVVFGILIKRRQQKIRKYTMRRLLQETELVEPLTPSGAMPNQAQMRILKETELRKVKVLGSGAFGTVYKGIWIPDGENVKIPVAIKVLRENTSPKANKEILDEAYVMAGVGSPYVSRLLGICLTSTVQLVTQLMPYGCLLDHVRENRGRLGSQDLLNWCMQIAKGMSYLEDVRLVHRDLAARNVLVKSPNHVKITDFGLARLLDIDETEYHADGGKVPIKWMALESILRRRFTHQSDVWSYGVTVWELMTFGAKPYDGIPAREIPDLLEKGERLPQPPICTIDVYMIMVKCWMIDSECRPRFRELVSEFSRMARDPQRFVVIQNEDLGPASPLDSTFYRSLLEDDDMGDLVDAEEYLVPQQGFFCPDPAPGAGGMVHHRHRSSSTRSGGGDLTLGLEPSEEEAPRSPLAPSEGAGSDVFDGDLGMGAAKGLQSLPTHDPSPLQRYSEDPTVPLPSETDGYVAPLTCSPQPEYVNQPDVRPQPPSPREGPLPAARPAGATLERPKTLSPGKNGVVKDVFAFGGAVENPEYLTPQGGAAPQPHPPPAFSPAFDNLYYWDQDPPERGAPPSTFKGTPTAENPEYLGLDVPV
T4 sequence (P35968 20-1356): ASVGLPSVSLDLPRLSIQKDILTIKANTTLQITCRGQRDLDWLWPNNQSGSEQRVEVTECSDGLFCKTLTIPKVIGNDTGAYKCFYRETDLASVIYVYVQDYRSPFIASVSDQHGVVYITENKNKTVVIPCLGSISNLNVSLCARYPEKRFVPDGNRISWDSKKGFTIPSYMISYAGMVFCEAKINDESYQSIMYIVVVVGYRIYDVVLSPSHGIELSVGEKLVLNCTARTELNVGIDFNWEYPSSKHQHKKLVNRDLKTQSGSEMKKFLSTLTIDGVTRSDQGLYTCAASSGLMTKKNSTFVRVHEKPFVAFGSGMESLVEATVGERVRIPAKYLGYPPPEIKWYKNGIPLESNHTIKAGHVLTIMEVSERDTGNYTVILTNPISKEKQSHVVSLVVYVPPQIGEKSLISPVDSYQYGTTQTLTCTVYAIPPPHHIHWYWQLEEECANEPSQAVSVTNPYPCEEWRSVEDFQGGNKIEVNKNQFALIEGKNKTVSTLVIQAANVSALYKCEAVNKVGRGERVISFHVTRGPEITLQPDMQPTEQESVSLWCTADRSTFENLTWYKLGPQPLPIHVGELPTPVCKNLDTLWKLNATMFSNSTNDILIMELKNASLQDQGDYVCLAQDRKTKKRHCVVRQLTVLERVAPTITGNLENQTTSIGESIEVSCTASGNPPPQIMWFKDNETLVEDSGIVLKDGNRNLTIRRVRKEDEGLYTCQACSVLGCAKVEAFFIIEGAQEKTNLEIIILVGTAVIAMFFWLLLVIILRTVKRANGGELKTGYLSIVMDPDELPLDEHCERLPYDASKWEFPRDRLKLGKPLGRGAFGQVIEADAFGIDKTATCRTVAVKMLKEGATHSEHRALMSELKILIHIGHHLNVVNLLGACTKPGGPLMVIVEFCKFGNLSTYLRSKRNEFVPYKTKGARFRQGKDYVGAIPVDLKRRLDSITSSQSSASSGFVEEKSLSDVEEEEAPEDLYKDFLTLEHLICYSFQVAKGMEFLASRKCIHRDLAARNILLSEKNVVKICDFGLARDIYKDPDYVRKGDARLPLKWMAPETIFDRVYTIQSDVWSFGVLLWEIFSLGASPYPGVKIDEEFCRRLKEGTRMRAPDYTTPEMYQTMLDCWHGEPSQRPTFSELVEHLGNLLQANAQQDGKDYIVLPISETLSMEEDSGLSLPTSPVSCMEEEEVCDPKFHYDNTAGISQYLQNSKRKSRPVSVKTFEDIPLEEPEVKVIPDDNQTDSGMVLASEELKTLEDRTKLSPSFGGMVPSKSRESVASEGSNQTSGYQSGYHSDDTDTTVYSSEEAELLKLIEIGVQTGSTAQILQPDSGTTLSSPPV
T3 sequence (P00533 25-1210): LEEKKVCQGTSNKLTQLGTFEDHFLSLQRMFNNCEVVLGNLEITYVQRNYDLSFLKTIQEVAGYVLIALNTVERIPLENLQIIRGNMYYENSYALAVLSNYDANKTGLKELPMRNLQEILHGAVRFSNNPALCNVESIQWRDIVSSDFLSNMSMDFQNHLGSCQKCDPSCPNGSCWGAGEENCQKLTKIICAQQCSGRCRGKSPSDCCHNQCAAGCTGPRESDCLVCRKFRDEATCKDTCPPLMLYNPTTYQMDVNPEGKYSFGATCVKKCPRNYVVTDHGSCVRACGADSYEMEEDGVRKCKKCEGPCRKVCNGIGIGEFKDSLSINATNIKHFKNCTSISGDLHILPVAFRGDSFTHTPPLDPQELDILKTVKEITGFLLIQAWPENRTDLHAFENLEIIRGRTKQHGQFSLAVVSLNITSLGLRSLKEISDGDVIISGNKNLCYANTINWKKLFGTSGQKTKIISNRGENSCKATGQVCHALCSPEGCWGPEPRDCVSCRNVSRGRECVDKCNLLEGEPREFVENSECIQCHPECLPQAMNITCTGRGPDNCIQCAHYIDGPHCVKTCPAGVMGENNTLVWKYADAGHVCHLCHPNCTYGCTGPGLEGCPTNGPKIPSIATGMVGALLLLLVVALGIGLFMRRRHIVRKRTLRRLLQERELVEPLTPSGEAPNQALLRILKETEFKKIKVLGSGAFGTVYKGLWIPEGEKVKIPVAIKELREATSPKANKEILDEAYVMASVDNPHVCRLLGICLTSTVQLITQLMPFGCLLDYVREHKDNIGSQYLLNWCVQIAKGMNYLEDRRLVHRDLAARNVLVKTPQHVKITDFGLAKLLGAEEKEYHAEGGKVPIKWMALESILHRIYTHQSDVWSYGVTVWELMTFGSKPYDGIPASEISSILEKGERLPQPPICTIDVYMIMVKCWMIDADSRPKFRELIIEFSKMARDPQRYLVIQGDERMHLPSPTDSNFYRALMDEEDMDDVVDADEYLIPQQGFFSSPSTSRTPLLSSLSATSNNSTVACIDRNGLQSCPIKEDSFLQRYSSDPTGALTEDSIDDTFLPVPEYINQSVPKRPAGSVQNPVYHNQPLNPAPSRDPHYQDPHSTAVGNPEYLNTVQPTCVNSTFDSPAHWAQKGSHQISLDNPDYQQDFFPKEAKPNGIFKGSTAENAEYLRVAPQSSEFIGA

melting point | IC50 (Her2) | IC50 (CDK2) | IC50 (EGFR) | IC50 (VEGFR2) | SMILES | IC50 [1] | IC50 [2] | IC50 [3] | IC50 [4] | IC50 [5] | Protein Expression (Pg/mL) Bcl-2 (Bcl-2) | Protein Expression (Pg/mL) Bax (Bax) | Protein Expression (Pg/mL) Caspase-3 (caspase-3)
294 °C | – | – | – | – | O=C(N/N=C/c1ccccc1Br)c1ccc(Nc2ncnc3[nH]ccc23)cc1 [Compound 5b, (E)-4-((7H-Pyrrolo[2,3-d]pyrimidin-4-yl)amino)-N’-(2-bromobenzylidene)benzohydrazide] | 90.6 ± 4.7 µM | 83.9 ± 4.3 µM | 53.2 ± 3.1 µM | 79.2 ± 4.1 µM | – | – | – | –
– | 206 nM | 1020 nM | 636 nM | 1040 nM | O=C(N/N=C/c1ccccc1F)c1ccc(Nc2ncnc3[nH]ccc23)cc1 [Compound 5h, (E)-4-((7H-Pyrrolo[2,3-d]pyrimidin-4-yl)amino)-N’-(2-fluorobenzylidene)benzohydrazide] | 49.9 ± 2.8 µM | 52.4 ± 2.9 µM | 33.2 ± 2.4 µM | 45.2 ± 2.5 µM | 29 to 59 µM | – | – | –
295 °C | – | – | – | – | O=C(N/N=C/c1cccc(F)c1)c1ccc(Nc2ncnc3[nH]ccc23)cc1 [Compound 5i, (E)-4-((7H-Pyrrolo[2,3-d]pyrimidin-4-yl)amino)-N’-(3-fluorobenzylidene)benzohydrazide] | 76.1 ± 3.7 µM | 69.9 ± 3.8 µM | 45 ± 2.8 µM | 63.8 ± 3.5 µM | – | – | – | –
294 °C | – | – | – | – | O=C(N/N=C/c1ccccc1)c1ccc(Nc2ncnc3[nH]ccc23)cc1 [Compound 5a, (E)-4-((7H-Pyrrolo[2,3-d]pyrimidin-4-yl)amino)-N’-benzylidenebenzohydrazide] | 68.2 ± 3.3 µM | 64.9 ± 3.6 µM | 43.1 ± 2.7 µM | 56.2 ± 3.2 µM | 43.1 to 68.2 µM | – | – | –
– | 335 nM | 2120 nM | 1140 nM | 593 nM | O=C(N/N=C/c1ccccc1Cl)c1ccc(Nc2ncnc3[nH]ccc23)cc1 [Compound 5e, (E)-4-((7H-Pyrrolo[2,3-d]pyrimidin-4-yl)amino)-N’-(2-chlorobenzylidene)benzohydrazide] | 53 ± 2.9 µM | 55.3 ± 3.1 µM | 29.1 ± 2.5 µM | 48.1 ± 2.6 µM | 29 to 59 µM | – | – | –

Continued, compound first:

SMILES | melting point | IC50 (Her2) | IC50 (CDK2) | IC50 (EGFR) | IC50 (VEGFR2) | IC50 [1] | IC50 [2] | IC50 [3] | IC50 [4] | IC50 [5] | Protein Expression (Pg/mL) Bcl-2 (Bcl-2) | Protein Expression (Pg/mL) Bax (Bax) | Protein Expression (Pg/mL) Caspase-3 (caspase-3)
O=C(N/N=C/c1ccc(F)cc1)c1ccc(Nc2ncnc3[nH]ccc23)cc1 [Compound 5j, (E)-4-((7H-Pyrrolo[2,3-d]pyrimidin-4-yl)amino)-N’-(4-fluorobenzylidene)benzohydrazide] | 309 °C | – | – | – | – | 71.7 ± 3.5 µM | 66.4 ± 3.6 µM | 42.6 ± 2.8 µM | 58.5 ± 3.3 µM | – | – | – | –
O=C(N/N=C/c1cc(Br)ccc1O)c1ccc(Nc2ncnc3[nH]ccc23)cc1 [Compound 5l, (E)-4-((7H-Pyrrolo[2,3-d]pyrimidin-4-yl)amino)-N’-(5-bromo-2-hydroxybenzylidene)benzohydrazide] | – | 193 nM | 599 nM | 406 nM | 1200 nM | 46.1 ± 2.4 µM | 47.1 ± 2.5 µM | 36.3 ± 2.6 µM | 41.3 ± 2.4 µM | 29 to 59 µM | – | – | –
O=C(N/N=C/c1cccc(C(F)(F)F)c1)c1ccc(Nc2ncnc3[nH]ccc23)cc1 [Compound 5m, (E)-4-((7H-Pyrrolo[2,3-d]pyrimidin-4-yl)amino)-N’-(3-(trifluoromethyl)benzylidene)benzohydrazide] | 280 °C | – | – | – | – | 64.5 ± 3.4 µM | 61.9 ± 3.3 µM | 39.8 ± 2.7 µM | 53.7 ± 3 µM | – | – | – | –
O=C(N/N=C/c1cccc(Br)c1)c1ccc(Nc2ncnc3[nH]ccc23)cc1 [Compound 5c, (E)-4-((7H-Pyrrolo[2,3-d]pyrimidin-4-yl)amino)-N’-(3-bromobenzylidene)benzohydrazide] | 296 °C | – | – | – | – | 85.5 ± 4.1 µM | 80.7 ± 4 µM | 48.5 ± 2.9 µM | 75.8 ± 3.9 µM | – | – | – | –
CN[C@@H]1C[C@H]2O[C@@](C)([C@@H]1OC)n1c3ccccc3c3c4c(c5c6ccccc6n2c5c31)C(=O)NC4 [Staurosporine, reference compound] | – | – | – | – | – | – | – | – | – | – | 4.404 ± 0.09 pg/mL | 276.9 ± 2.26 pg/mL | 684.6 ± 13.4 pg/mL
CCN(CC)CCNC(=O)c1c(C)[nH]c(/C=C2\C(=O)Nc3ccc(F)cc32)c1C [Sunitinib, reference compound] | – | – | – | – | – | 21.8 ± 1.7 µM | – | – | – | – | – | – | –
O=C(N/N=C/c1cccc(Cl)c1)c1ccc(Nc2ncnc3[nH]ccc23)cc1 [Compound 5f, (E)-4-((7H-Pyrrolo[2,3-d]pyrimidin-4-yl)amino)-N’-(3-chlorobenzylidene)benzohydrazide] | 281 °C | – | – | – | – | > 100 µM | 94.7 ± 4.9 µM | 74.6 ± 3.9 µM | 86.6 ± 4.6 µM | – | – | – | –
O=C(N/N=C/c1ccc(Cl)cc1)c1ccc(Nc2ncnc3[nH]ccc23)cc1 [Compound 5g, (E)-4-((7H-Pyrrolo[2,3-d]pyrimidin-4-yl)amino)-N’-(4-chlorobenzylidene)benzohydrazide] | 314 °C | – | – | – | – | 79.7 ± 3.9 µM | 73.3 ± 3.9 µM | 51.9 ± 3 µM | 67.6 ± 3.7 µM | – | – | – | –
O=C(N/N=C/c1ccc(Br)cc1)c1ccc(Nc2ncnc3[nH]ccc23)cc1 [Compound 5d, (E)-4-((7H-Pyrrolo[2,3-d]pyrimidin-4-yl)amino)-N’-(4-bromobenzylidene)benzohydrazide] | 321 °C | – | – | – | – | 95.8 ± 5.1 µM | 88.2 ± 4.5 µM | 62.4 ± 3.5 µM | 81.5 ± 4 µM | – | – | – | –
